# Reference: ChEMBL document CHEMBL1125459, “Synthesis and biological activity of 8a-phenyldecahydroquinolines as probes of PCP's binding conformation. A new PCP-like compound with increased in vivo potency” (J Med Chem, 1992)
# What was measured:
# [1] = Compound was evaluated for its affinity towards NMDA receptor in male Swiss Webster mice.
# [2] = Compound was evaluated for its affinity towards N-methyl-D-aspartate glutamate receptor in male Swiss Webster mice.
# Mus musculus = assay: Compound was evaluated in vivo for effective dose by subcutaneous administration in mice using cGMP assay; assay type: functional; details: sc
smiles,measurement,setting,value
c1ccc([C@@]23CCCC[C@@H]2CCCN3)cc1,IC50,[1],159 nM
c1ccc([C@]23CCCC[C@H]2CCCN3)cc1,IC50,[2],467 nM
c1ccc([C@@]23CCCC[C@H]2CCCN3)cc1,ED50,Mus musculus,0.16 mg/kg
same,IC50,[2],66.3 nM
c1ccc([C@]23CCCC[C@@H]2CCCN3)cc1,IC50,[1],94.6 nM
C[C@]12N[C@H](Cc3ccccc31)c1ccccc12 [DIZOCILPINE],ED50,Mus musculus,0.3 mg/kg
same,IC50,[2],1.4 nM
c1ccc(C2(N3CCCCC3)CCCCC2)cc1 [PHENCYCLIDINE],IC50,[2],35 nM
